Test results: ChEMBL document CHEMBL1795284, “Total synthesis of racemic and (R) and (S)-4-methoxyalkanoic acids and their antifungal activity” (2011)
Converted amounts (≈) assume the structure as drawn.

Assays:
Type in all cases: functional
[1] = test system: Candida albicans; assay: Antifungal activity against Candida albicans MTCC 227 after 18 hrs by microtiter broth dilution method; conditions: MTCC 227, 18 h
[2] = test system: Candida albicans; assay: Antifungal activity against Candida albicans MTCC 4748 after 18 hrs by microtiter broth dilution method; conditions: MTCC 4748, 18 h
[3] = test system: Candida albicans; assay: Antifungal activity against Candida albicans MTCC 3017 after 18 hrs by microtiter broth dilution method; conditions: MTCC 3017, 18 h
[4] = test system: Candida parapsilosis; assay: Antifungal activity against Candida parapsilosis MTCC 1744 after 18 hrs by microtiter broth dilution method; conditions: Lodderomyces parapsilosis, MTCC 1744, 18 h
[5] = test system: Aspergillus niger; assay: Antifungal activity against Aspergillus niger MTCC 281 after 18 hrs by microtiter broth dilution method; conditions: MTCC 281, 18 h
[6] = test system: Pichia kudriavzevii; assay: Antifungal activity against Issatchenkia orientalis MTCC 3020 after 18 hrs by microtiter broth dilution method; conditions: MTCC 3020, 18 h

Row | SMILES | MIC [1] [µg/mL] | MIC [2] [µg/mL] | MIC [3] [µg/mL] | MIC [4] [µg/mL] | MIC [5] [µg/mL] | MIC [6] [µg/mL]
1 | CCCCCC[C@H](CCC(=O)O)OC | 19 (≈ 93.9 µM) | 19 (≈ 93.9 µM) | 312 (≈ 1540 µM) | 625 (≈ 3090 µM) | 19 (≈ 93.9 µM) | 19 (≈ 93.9 µM)
2 | CCCCCC[C@@H](CCC(=O)O)OC | 1250 (≈ 6180 µM) | 39 (≈ 193 µM) | 156 (≈ 771 µM) | 156 (≈ 771 µM) | 1240 (≈ 6120 µM) | 312 (≈ 1540 µM)
3 | CCCCCCC[C@H](CCC(=O)O)OC | 156 (≈ 721 µM) | 78 (≈ 361 µM) | 1250 (≈ 5780 µM) | – | 168 (≈ 777 µM) | 312 (≈ 1440 µM)
4 | CCCCCCC[C@@H](CCC(=O)O)OC | 78 (≈ 361 µM) | 156 (≈ 721 µM) | 1250 (≈ 5780 µM) | 2500 (≈ 11600 µM) | 82 (≈ 379 µM) | 2500 (≈ 11600 µM)
5 | CCCCCCC(CCC(=O)O)OC (racemic) | 625 (≈ 3090 µM) | 156 (≈ 771 µM) | 5010 (≈ 24800 µM) | 5010 (≈ 24800 µM) | 631 (≈ 3120 µM) | 1250 (≈ 6180 µM)
6 | CCCCCCCC(CCC(=O)O)OC (racemic) | 156 (≈ 721 µM) | 19 (≈ 87.8 µM) | 78 (≈ 361 µM) | 625 (≈ 2890 µM) | 164 (≈ 758 µM) | 312 (≈ 1440 µM)
7 | OC(Cn1cncn1)(Cn1cncn1)c1ccc(F)cc1F [FLUCONAZOLE] | 32 (≈ 104 µM) | 32 (≈ 104 µM) | 64 (≈ 209 µM) | 16 (≈ 52.2 µM) | 34 (≈ 111 µM) | 128 (≈ 418 µM)
